Laboratory results published in patent US11414387B2, “Oxoacridinyl acetic acid derivatives and methods of use” (Stingthera, Inc., priority 2017, dated 2022).

Assays:
[1] = biological target: STING protein (Homo sapiens (Human), UniProt Q86WV6, H232R); assay: Cell based reporter assay of IRF activation (IRF-luciferase), THP1-dual-KI R232; conditions: read-out: THP1-dual-KI R232_IRF(Luciferase)_Activity Maximum measured (%)
[2] = biological target: hSTING-R232 (Homo sapiens (Human), UniProt Q86WV6, H232R); assay: STING differential scanning fluorimetry (DSF) assay, WT human STING; conditions: WT (R232) human STING aa140-379, net shift in melting temperature
Procedure: A STING DSF assay was performed to determine protein thermostability shift in response to small molecule ligand binding. A STING thermostability shift assay based on differential scanning fluorimetry was used to measure (1) the net shift in melting temperature (ΔTm)between the apo and ligand-bound states of the STING protein and (2) the concentration of the thermal denaturation transition (EC50) as a surrogate measure of binding affinity (K). […] Protein in assay buffer was transferred to a 384 well plate and incubated with the hydrophobic fluorescent dye SYBR Orange. A temperature ramp was applied to the plate and the resulting dye fluorescence was plotted as a function of temperature. The first derivative of this function (dF/dT) was then used to extrapolate the melting temperature of the protein at various concentrations of compound and determine the thermal denaturation profile of a protein/compound complex.
• 1. Protein construct (affinity tag removal vs SUMO-fusion construct) • 2. Protein concentration • 3. Dye concentration • 4. Buffer • 5. Thermal ramp velocity • 6. DMSO tolerance • 7. Compound titration parameters • 8. […] 5 μM purified Target STING Protein • 3. 8 μM Sypro Orange Dye • 4. Buffer: 100 mM NaCl, 30 mM HEPES, pH 7.5 • 5. Thermal Ramp: 0.5° C./min • 6. <1% DMSO • 7. 11 point, 2 fold dilution, duplicate, 300 μM high concentrations • 8.

[3] = biological target: mSTING-R232 (Mus musculus, UniProt Q3TBT3); assay: STING differential scanning fluorimetry (DSF) assay, mouse STING; conditions: net shift in melting temperature
[4] = biological target: hSTING-WT (Homo sapiens (Human), UniProt Q86WV6, H232R); assay: Radiometric filtration binding competition assay, hSTING-WT
[5] = biological target: mSTING (Mus musculus, UniProt Q3TBT3); assay: Radiometric filtration binding competition assay, mSTING

Sequence of hSTING-WT (Q86WV6 140-379 H232R): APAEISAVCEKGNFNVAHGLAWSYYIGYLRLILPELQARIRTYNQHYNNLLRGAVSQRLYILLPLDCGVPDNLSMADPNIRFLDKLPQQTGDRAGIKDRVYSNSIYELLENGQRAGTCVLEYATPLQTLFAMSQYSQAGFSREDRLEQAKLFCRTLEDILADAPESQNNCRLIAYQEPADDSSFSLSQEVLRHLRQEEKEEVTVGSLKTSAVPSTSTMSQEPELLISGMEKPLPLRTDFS
Sequence of hSTING-R232 (Q86WV6 140-379 H232R): as above
Sequence of STING protein (Q86WV6 whole entry H232R, the tested form may be a part): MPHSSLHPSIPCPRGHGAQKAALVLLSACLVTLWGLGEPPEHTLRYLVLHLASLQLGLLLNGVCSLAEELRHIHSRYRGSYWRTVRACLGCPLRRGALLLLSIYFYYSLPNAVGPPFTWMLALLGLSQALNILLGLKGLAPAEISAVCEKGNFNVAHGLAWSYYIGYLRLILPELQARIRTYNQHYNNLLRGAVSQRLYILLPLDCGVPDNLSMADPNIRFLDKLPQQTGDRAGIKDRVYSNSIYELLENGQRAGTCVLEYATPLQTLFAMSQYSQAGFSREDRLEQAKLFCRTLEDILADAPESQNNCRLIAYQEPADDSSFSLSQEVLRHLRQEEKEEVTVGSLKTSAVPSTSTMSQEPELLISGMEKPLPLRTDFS

SMILES | Emax [1] [%] | WT_DSF_hSWAT Tm Shift (° C.) [2] | MOUSE DSF_6xHIS-SUMO Tm Shift (° C.) [3] | IC50 [4] [µM] | IC50 [5] [µM]
O=C(O)Cn1c2cc(N3CCc4ccccc43)ccc2c(=O)c2ccc(Cl)c(Cl)c21 [Compound 144] | < 5 | C (“C” = 2-7° C,) | C (“C” = 5-15° C.) | 100 to 300 | –
CC1CCC(Nc2ccc3c(=O)c4ccc(Cl)c(Cl)c4n(CC(=O)O)c3c2)CC1 (stereo not drawn) [Compound 140] | 5 to 25 | C (“C” = 2-7° C,) | D (“D” > 15° C.) | 20 to 100 | –
CC(C)c1ccc(-c2ccc3c(c2)c(=O)c2ccc(Cl)c(Br)c2n3CC(=O)O)cc1 [Compound 109] | < 5 | B (“B” = 0-2° C.) | B (“B” = 0-5° C.) | 20 to 100 | –
O=C(O)Cn1c2cc(NC3CCOCC3)ccc2c(=O)c2ccc(Cl)c(Cl)c21 [Compound 142] | < 5 | C (“C” = 2-7° C,) | C (“C” = 5-15° C.) | 100 to 300 | –
Cc1ccc2c(=O)c3ccc(Cl)cc3n([C@@H](C)C(=O)O)c2c1 [Compound 180] | – | A (“A” < 0° C.) | B (“B” = 0-5° C.) | 20 to 100 | –
CC(C)c1ccc2c(=O)c3ccc(Br)c(Cl)c3n(CC(=O)O)c2c1 [Compound 170] | 25 to 50 | B (“B” = 0-2° C.) | C (“C” = 5-15° C.) | 20 to 100 | –
O=C(O)Cn1c2ccccc2c(=O)c2cccc(Br)c21 [Compound 130] | – | B (“B” = 0-2° C.) | C (“C” = 5-15° C.) | > 300 | –
CC(C)c1ccc2c(=O)c3ccc(Cl)c(Cl)c3n(C)c2c1 [Compound 174] | < 5 | B (“B” = 0-2° C.) | B (“B” = 0-5° C.) | > 300 | –
Cc1cc2c(cc1F)c(=O)c1ccc(Cl)c(Cl)c1n2CC(=O)O [Compound 135] | < 5 | A (“A” < 0° C.) | B (“B” = 0-5° C.) | 100 to 300 | –
COc1cccc2c(=O)c3ccccc3n(CC(=O)O)c12 [Compound 131] | – | A (“A” < 0° C.) | A (“A” < 0° C.) | > 300 | –
O=C(O)Cn1c2ccccc2c(=O)c2ccc(F)c(Br)c21 [Compound 173] | – | B (“B” = 0-2° C.) | C (“C” = 5-15° C.) | > 300 | –
CC(C(=O)O)n1c2ccccc2c(=O)c2ccc(Cl)c(Cl)c21 (stereo not drawn) [Compound 141] | – | – | A (“A” < 0° C.) | > 300 | –
CC1(C)CCC=C(c2ccc3c(=O)c4ccc(Cl)c(Cl)c4n(CC(=O)O)c3c2)C1 [Compound 157] | < 5 | C (“C” = 2-7° C,) | D (“D” > 15° C.) | 20 to 100 | –
Cc1ccc2c(=O)c3ccc(Cl)cc3n(C(C)C(=O)O)c2c1 (stereo not drawn) [Compound 171] | < 5 | A (“A” < 0° C.) | B (“B” = 0-5° C.) | > 300 | –
CC(C)(C)CNc1ccc2c(=O)c3ccc(Cl)c(Br)c3n(CC(=O)O)c2c1 [Compound 148] | 25 to 50 | C (“C” = 2-7° C,) | C (“C” = 5-15° C.) | 20 to 100 | –
O=C(O)Cn1c2cc(NCCN3CCc4ccccc43)ccc2c(=O)c2ccc(Cl)c(Cl)c21 [Compound 150] | 5 to 25 | C (“C” = 2-7° C,) | C (“C” = 5-15° C.) | 100 to 300 | –
CC1(C)CCCC(Nc2ccc3c(=O)c4ccc(Cl)c(Cl)c4n(CC(=O)O)c3c2)C1 (stereo not drawn) [Compound 139] | < 5 | C (“C” = 2-7° C,) | D (“D” > 15° C.) | 20 to 100 | –

SMILES | Emax [1] [%] | WT_DSF_hSWAT Tm Shift (° C.) [2] | MOUSE DSF_6xHIS-SUMO Tm Shift (° C.) [3] | IC50 [4] [µM] | IC50 [5] [µM]
O=C(O)Cn1c2cc(NC3CCC3)ccc2c(=O)c2ccc(Cl)c(Br)c21 [Compound 175] | > 50 | D (“D” > 7° C.) | D (“D” > 15° C.) | 20 to 100 | –
CC(C)(C)CNc1ccc2c(=O)c3ccc(Cl)c(Cl)c3n(CC(=O)O)c2c1 [Compound 138] | > 50 | C (“C” = 2-7° C,) | C (“C” = 5-15° C.) | 20 to 100 | –
Cc1ccc2c(=O)c3ccc(Cl)cc3n([C@H](C)C(=O)O)c2c1 [Compound 179] | – | A (“A” < 0° C.) | B (“B” = 0-5° C.) | 100 to 300 | –
O=C(O)Cn1c2cc(-c3ccncc3)ccc2c(=O)c2ccc(Cl)c(Cl)c21 [Compound 189] | 5 to 25 | C (“C” = 2-7° C,) | C (“C” = 5-15° C.) | 100 to 300 | –
COc1c(Cl)ccc2c(=O)c3ccc(C(C)C)cc3n(CC(=O)NS(=O)(=O)C(F)(F)F)c12 [Compound 261] | < 5 | C (“C” = 2-7° C,) | – | 20 to 100 | 20 to 100
CSc1c(Cl)ccc2c(=O)c3ccc(-c4ccc(O)cc4)cc3n(CC(=O)O)c12 [Compound 271] | > 50 | D (“D” > 7° C.) | – | < 20 | < 20
CCSc1c(Cl)ccc2c(=O)c3ccc(C)cc3n(CC(=O)O)c12 [Compound 304] | > 50 | D (“D” > 7° C.) | – | 20 to 100 | < 20
NC(=O)Cn1c2ccccc2c(=O)c2ccc(Cl)c(Cl)c21 [Compound 146] | – | – | B (“B” = 0-5° C.) | – | –
CSc1c(Cl)ccc2c(=O)c3ccc(C(C)C)cc3n(CC(=O)O)c12 [Compound 281] | > 50 | D (“D” > 7° C.) | – | < 20 | < 20
C[C@@H](Oc1c(Cl)ccc2c(=O)c3ccccc3n(CC(=O)O)c12)c1ccccc1 [Compound 296] | < 5 | A (“A” < 0° C.) | – | > 300 | > 300
O=C(O)Cn1c2cc(NC3CCNCC3)ccc2c(=O)c2ccc(Cl)c(Cl)c21 [Compound 143] | – | B (“B” = 0-2° C.) | B (“B” = 0-5° C.) | > 300 | –
CC(C)Sc1c(Cl)ccc2c(=O)c3ccc(C(C)(C)C)cc3n(CC(=O)O)c12 [Compound 290] | 25 to 50 | D (“D” > 7° C.) | – | < 20 | 20 to 100
O=C(O)Cn1c2ccccc2c(=O)c2ccc(Cl)c(Oc3nccc4ccccc34)c21 [Compound 243] | < 5 | A (“A” < 0° C.) | – | 20 to 100 | 100 to 300
O=C(O)Cn1c2cc(C(F)(F)F)ccc2c(=O)c2ccc(Cl)c(Cl)c21 [Compound 165] | – | B (“B” = 0-2° C.) | C (“C” = 5-15° C.) | > 300 | –
COc1ccc2c(c1C)c(=O)c1ccc(Cl)c(Cl)c1n2CC(=O)O [Compound 133] | – | A (“A” < 0° C.) | B (“B” = 0-5° C.) | 100 to 300 | –
CCOc1c(Cl)ccc2c(=O)c3ccc(C)cc3n(CC(=O)OC)c12 [Compound 322] | 5 to 25 | B (“B” = 0-2° C.) | – | > 300 | > 300
COc1c(Cl)ccc2c(=O)c3cc(N)c(C(C)C)cc3n(CC(=O)O)c12 [Compound 320] | < 5 | A (“A” < 0° C.) | – | 100 to 300 | > 300
